Laboratory results taken from PMC8922279, “Identification of β-Lactams Active against Mycobacterium tuberculosis by a Consortium of Pharmaceutical Companies and Academic Institutions” (ACS Infectious Diseases, 2022).
Converted amounts (≈) assume the structure as drawn.

Assays:
[1] = tested on: Mtb H37Rv; experiment: MIC90 against nonreplicating (NR, 4-stress) Mtb H37Rv, with or without clavulanate; format: cell-based, Mycobacterium tuberculosis; conditions: 4-stress nonreplicating, Table S4
[2] = tested on: E. coli; experiment: Microbial spectrum, E. coli; format: cell-based, Escherichia coli
[3] = tested on: P. aeruginosa; experiment: Microbial spectrum, P. aeruginosa; format: cell-based, Pseudomonas aeruginosa
[4] = tested on: S. aureus; experiment: Microbial spectrum, S. aureus; format: cell-based, Staphylococcus aureus
[5] = tested on: C. albicans; experiment: Microbial spectrum, C. albicans; format: cell-based, Candida albicans
[6] = Cytotoxicity against HepG2 cells (CellTiter-Glo); format: cell-based, human; conditions: human, HepG2 cells
Method: (§1) Compounds were tested for cytotoxicity against HepG2 cells as previously described.[48],[69],[70] Briefly, cells were exposed to compounds for 48–72 h, and viability was measured using CellTiter-Glo (Promega).

[7] = tested on: HepG2 cells; experiment: Cytotoxicity against HepG2 cells (CellTiter-Glo); format: cell-based, human; conditions: Table S4
Method: as §1

[8] = target: T1, hERG (Homo sapiens, UniProt Q12809); experiment: hERG channel measurements (QPatch automated patch clamp); format: cell-based; conditions: HEK293 cells stably transfected with hERG (inducible), pH 7.4
T1 construct: expressed in transfected cells
Method: The potency of the compounds in inhibiting the human ERG potassium channel (hERG) tail current was assessed in a recombinant HEK293 cell line stably transfected with hERG cDNA under an inducible promoter using the rapid ICE (rapid ion channel electrophysiology) assay. Rapid ICE is an automated patch clamp assay utilizing a QPatch HTX system (Sophion Bioscience A/S). Briefly, inducible HEK hERG cells were cultivated in minimum essential medium supplemented with 10% FBS, 1% nonessential amino acids, 1% sodium pyruvate, 2 mM L-glutamine, 15 μg/mL blasticidin, and 100 μg/mL hygromycin. hERG channel induction was obtained by adding 10 μg/mL tetracycline for 24, 48, or 72 h before recordings. On the day of the experiment, cells were detached with TrypLE and prepared to be loaded on the instrument. Cells were resuspended in 7 mL of serum-free media containing 25 mM Hepes and soybean trypsin inhibitor and immediately placed in the cell storage tank of the machine. […] The voltage protocol was run and recorded continuously during the experiment. […] The average of tail current amplitude values recorded from four sequential voltage pulses was used to calculate for each cell the effect of the test substance by calculating the residual current (% control) compared with vehicle pretreatment. […]

[9] = Metabolic stability, mouse; format: in vitro ADME
[10] = simulated gi fluid, 10 μM, pH 6.5
[11] = male, CD-1, mouse, 2 h, 2 μM
[12] = SD, 2 h, 2 μM
[13] = 2 h, 2 μM
[14] = tested on: Caco-2 cells
[15] = tested on: plasma proteins; conditions: 4 h, 2 μM, pH 7.4
[16] = tested on: plasma proteins; conditions: 4 h, 2 μM, pH 7.4; remark: listed apart in the source
[17] = 300 mg/kg sc, uninfected DHP-1 mice
[18] = in vivo; conditions: DHP-1 knockout, mouse, sc, 300 mg/kg
[19] = in vivo; conditions: female, 129sv DHP-1 knockout, mouse, sc, 50 mg/kg
[20] = physchem; conditions: simulated gi fluid, pH 6.5, FaSSIF Stability, % remaining
[21] = in vitro; conditions: SD, rat, plasma, Plasma stability % Remaining
[22] = in vitro; conditions: beagle, dog, plasma
[23] = in vitro; conditions: monkey, plasma
[24] = in vitro; conditions: human, plasma, Plasma stability % Remaining
[25] = in vitro; conditions: human
[26] = in vitro; conditions: beagle, dog, plasma, pH 7.4
[27] = in vitro; conditions: human, plasma, pH 7.4, % bound to plasma

T1 sequence (Q12809 whole entry): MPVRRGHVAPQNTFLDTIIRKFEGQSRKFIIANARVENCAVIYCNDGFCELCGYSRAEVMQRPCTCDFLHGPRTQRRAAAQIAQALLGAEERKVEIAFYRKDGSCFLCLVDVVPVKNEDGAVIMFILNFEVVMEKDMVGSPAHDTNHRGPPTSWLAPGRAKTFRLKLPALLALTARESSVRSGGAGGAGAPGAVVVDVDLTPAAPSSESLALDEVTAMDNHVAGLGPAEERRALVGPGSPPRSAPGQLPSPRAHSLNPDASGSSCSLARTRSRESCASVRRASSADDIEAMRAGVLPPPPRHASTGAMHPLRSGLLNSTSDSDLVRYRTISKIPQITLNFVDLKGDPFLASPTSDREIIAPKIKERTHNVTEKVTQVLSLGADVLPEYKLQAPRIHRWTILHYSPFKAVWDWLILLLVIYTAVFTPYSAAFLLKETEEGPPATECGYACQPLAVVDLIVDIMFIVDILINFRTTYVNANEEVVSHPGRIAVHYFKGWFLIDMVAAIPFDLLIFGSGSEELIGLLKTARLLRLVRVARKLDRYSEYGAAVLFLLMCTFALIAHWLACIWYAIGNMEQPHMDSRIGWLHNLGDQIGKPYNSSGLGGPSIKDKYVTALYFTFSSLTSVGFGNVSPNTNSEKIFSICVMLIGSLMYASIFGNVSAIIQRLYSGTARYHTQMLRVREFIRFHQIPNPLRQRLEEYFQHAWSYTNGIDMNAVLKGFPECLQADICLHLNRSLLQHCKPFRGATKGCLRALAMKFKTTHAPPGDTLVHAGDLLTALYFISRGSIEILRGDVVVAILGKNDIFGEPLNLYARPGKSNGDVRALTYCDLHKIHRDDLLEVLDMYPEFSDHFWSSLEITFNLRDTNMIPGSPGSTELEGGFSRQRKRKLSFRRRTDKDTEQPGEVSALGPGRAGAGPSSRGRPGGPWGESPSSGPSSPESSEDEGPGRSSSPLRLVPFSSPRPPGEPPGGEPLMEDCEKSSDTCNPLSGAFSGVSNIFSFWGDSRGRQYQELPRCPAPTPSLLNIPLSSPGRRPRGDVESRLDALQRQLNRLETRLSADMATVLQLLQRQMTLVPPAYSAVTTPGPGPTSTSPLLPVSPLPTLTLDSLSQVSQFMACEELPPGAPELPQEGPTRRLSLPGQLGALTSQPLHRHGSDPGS

SMILES: O=C(Cc1ccc(C2=NCCN2)cc1)N[C@@H]1C(=O)N2C(C(=O)O)=C(CSc3nncs3)CS[C@H]12 [TBBL-0000316]
- Mtb H37Rv NR + CLAV (MIC90) ([1]; clavulanate 4 μg/mL): > 100 µM
- Mtb H37Rv NR (MIC90) ([1]; no clavulanate): > 100 µM
- MIC90 ([2]; Escherichia coli, E. coli): 31.8 µM (≈ 16.4 µg/mL)
- E.coli R + CLAV (MIC90) ([2]; clavulanate 4 μg/mL, Table S4): 31.8 µM
- MIC90 ([3]; Pseudomonas aeruginosa, P. aeruginosa): > 100 µM
- P.aeruginosa R + CLAV (MIC90) ([3]; clavulanate 4 μg/mL, Table S4): > 100 µM
- MIC90 ([4]; Staphylococcus aureus, S. aureus, with 4 μg/mL clavulanate): 0.86 µM
- S.aureus R + CLAV (MIC90) ([4]; clavulanate 4 μg/mL, Table S4): 0.9 µM
- MIC90 ([5]; Candida albicans, C. albicans): > 100 µM
- C.albicans R (MIC90) ([5]; no clavulanate, Table S4): > 100 µM
- IC50 [6]: > 100 µM
- HepG2 LD50 [7]: > 100 µM
- IC50 at 5 min [8]: > 50 µM
- metabolic stability [9]: 1.1 μL/min/mg protein
- metabolic stability 1/2 life [9]: 1300 min
- FaSSIF Stability, % remaining, 6h ([10]; 6 h): 95%
- FaSSIF Stability, % remaining, 24h ([10]; 24 h): 84%
- Plasma stability % Remaining, Mouse [11]: 89%
- Plasma stability % Remaining, Rat [12]: 86%
- Plasma stability % Remaining, Human [13]: 86%
- Caco-2 Rank Papp [14]: Low
- Efflux Transporter Substrate [14]: Poor or no
- % bound to plasma, SD Rat [15]: 62%
- % bound to plasma, Human [16]: 38%
- Tlast [17]: 2.0 to 4.0 h
- AUC(0-t) [18]: 60200 ± 11400 ng·h/mL
- Cmax [18]: 28700 ± 866 ng/mL
- Tmax [18]: 60 to 120 min
- AUC(0-t) [19]: 23700 ng·h/mL
- Cmax [19]: 17500 ng/mL
- Tmax [19]: 30 min
- remaining at 6 h, 10 μM ([20]; 6h): 94.7%
- remaining at 24 h, 10 μM ([20]; 24h): 84.2%
- remaining at 2 h, 2 μM [21]: 85.9%
- remaining at 2 h, 2 μM [22]: 77.3%
- remaining at 2 h, 2 μM [23]: 114%
- remaining at 2 h, 2 μM [24]: 86.1%
- Papp A→B at 120 min, 3 μM ([25]; Caco-2, pH 7.4): 0.31 ×10⁻⁶ cm/s
- Papp B→A at 120 min, 3 μM ([25]; Caco-2, pH 7.4): 0.32 ×10⁻⁶ cm/s
- Papp at 120 min, 3 µM ([25]; Caco-2, pH 7.4): 0.3 ×10⁻⁶ cm/s
- efflux ratio at 120 min, 3 μM ([25]; Caco-2, pH 7.4): 1.06
- recovery at 120 min, 3 μM ([25]; Caco-2, pH 7.4, Caco-2 Mean Recovery % A to B): 104%
- recovery at 120 min, 3 μM ([25]; Caco-2, pH 7.4, Caco-2 Mean Recovery % B to A): 110%
- fraction unbound at 4 h, 2 μM [26]: 0.973
- fraction unbound at 4 h, 2 μM [27]: 0.619
